#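 96-well plates; 48 h exposure; 5 concentrations. Endpoints by linear interpolation between flanking doses. Not reached: highest tested concentration assigned. At the GI50, growth is halved. TGI denotes the concentration required for complete inhibition of growth.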
# How the values were obtained:
# Experiment in all cases: NCI tumour cell line growth inhibition, 48 h
# RXF 393 renal = system: RXF 393 renal
# HT29 colon = system: HT29 colon
# CAKI-1 renal = system: CAKI-1 renal
# RPMI-8226 leukemia = system: RPMI-8226 leukemia
# HCT-116 colon = system: HCT-116 colon
# SK-MEL-2 melanoma = system: SK-MEL-2 melanoma
# MDA-MB-435 = system: MDA-MB-435
# HL-60(TB) leukemia = system: HL-60(TB) leukemia
# A549 NSCLC = system: A549 NSCLC
# COLO 205 colon = system: COLO 205 colon
# SF-539 CNS = system: SF-539 CNS
# SN12C renal = system: SN12C renal
# A498 renal = system: A498 renal
# OVCAR-8 ovarian = system: OVCAR-8 ovarian
# ACHN renal = system: ACHN renal
# MALME-3M melanoma = system: MALME-3M melanoma
# NCI-H522 lung = system: NCI-H522 lung
# SNB-75 CNS = system: SNB-75 CNS
SMILES,TGI (RXF 393 renal),TGI (HT29 colon),TGI (CAKI-1 renal),TGI (RPMI-8226 leukemia),TGI (HCT-116 colon),TGI (SK-MEL-2 melanoma),TGI (MDA-MB-435),TGI (HL-60(TB) leukemia),TGI (A549 NSCLC),TGI (COLO 205 colon),TGI (SF-539 CNS),TGI (SN12C renal),TGI (A498 renal),TGI (OVCAR-8 ovarian),TGI (ACHN renal),TGI (MALME-3M melanoma),TGI (NCI-H522 lung),TGI (SNB-75 CNS),GI50 (RPMI-8226 leukemia),GI50 (A498 renal)
CC(=O)c1c(-c2ccc(Cl)cc2)c(-c2ccc(Cl)cc2)n[nH]c1=O,> 100 µM,> 100 µM,> 100 µM,55.4 µM,> 100 µM,81.3 µM,> 100 µM,68.8 µM,> 100 µM,> 100 µM,64.2 µM,93.3 µM,77.4 µM,> 100 µM,66.1 µM,79 µM,,,,
NC(CSS(=O)(=O)O)=NC1CC2CCC1C2 (centres undefined),> 100 µM,,> 100 µM,> 100 µM,> 100 µM,> 100 µM,> 100 µM,> 100 µM,> 100 µM,> 100 µM,> 100 µM,> 100 µM,> 100 µM,> 100 µM,> 100 µM,> 100 µM,> 100 µM,> 100 µM,,
C=C(C)C1CC=C(C)C(=O)C1 (centres undefined),,> 100 µM,> 100 µM,> 100 µM,> 100 µM,> 100 µM,> 100 µM,> 100 µM,> 100 µM,> 100 µM,> 100 µM,> 100 µM,,> 100 µM,> 100 µM,> 100 µM,> 100 µM,> 100 µM,,
CN1CCCC2C(c3ccccc3)C(C3=NCCCC3)C(c3ccccc3)CC21 (centres undefined),> 100 µM,67.6 µM,> 100 µM,54.1 µM,> 100 µM,> 100 µM,36.6 µM,> 100 µM,> 100 µM,66.1 µM,31.3 µM,> 100 µM,> 100 µM,> 100 µM,> 100 µM,37.6 µM,54.5 µM,38 µM,,
CCC1CN2CCc3cc(OC)c(OC)cc3C2CC1CC1c2cc(OC)c(OC)cc2CCN1C(=O)C(N)Cc1ccccc1 (centres undefined),4.37 µM,10.4 µM,11.2 µM,6.07 µM,1.29 µM,6.1 µM,,4.8 µM,7.85 µM,,7.48 µM,10.8 µM,11 µM,11.1 µM,11.8 µM,6.46 µM,1.73 µM,10.6 µM,,
CCN(CC)C(=O)c1cc(OC(C)C)ccc1-c1c(C)cc(OC(C)C)c(OC)c1OC,> 100 µM,> 100 µM,> 100 µM,> 100 µM,> 100 µM,> 100 µM,,96.4 µM,> 100 µM,> 100 µM,> 100 µM,> 100 µM,,> 100 µM,> 100 µM,> 100 µM,> 100 µM,,,
COc1ccccc1C[C@@H]1OC2(C=CC(=O)CC2SC(=O)c2ccccc2)O[C@H]1Cc1ccccc1OC (some centres undefined),0.501 µM,3.14 µM,5.24 µM,0.943 µM,0.651 µM,3.31 µM,4.61 µM,5.64 µM,8.67 µM,3.16 µM,3.08 µM,6.49 µM,5.67 µM,,3.5 µM,4.26 µM,,3.28 µM,,
COc1cc2c(cc1C)NC(=O)/C2=C/c1cccnc1,25 µM,> 100 µM,30.3 µM,79.1 µM,31.2 µM,46.5 µM,86.1 µM,26.2 µM,> 55.3 µM,> 47.9 µM,> 84.7 µM,29.5 µM,24.6 µM,> 58.7 µM,> 56.8 µM,> 52.9 µM,33.4 µM,> 100 µM,12.7 µM,
O=c1[nH]c2cccc([N+](=O)[O-])c2c(=O)n1-c1ccc(Cl)cc1,37.1 µM,26.1 µM,19.5 µM,36.1 µM,61.7 µM,25.6 µM,25.5 µM,53.3 µM,36.3 µM,16.6 µM,26.2 µM,33.9 µM,30.6 µM,29.4 µM,25.1 µM,27.6 µM,,,,
CC(=O)NC1C(OCc2ccccc2)OC(CO)C(O)C1OC(C)C(=O)NC(C(=O)NC(CCC(=O)NCCCC(=O)Nc1ccc2c(c1)CN1C(=O)c3ccccc3C1=N2)C(N)=O)C(C)C (centres undefined),> 100 µM,> 100 µM,> 100 µM,> 100 µM,> 100 µM,> 100 µM,> 100 µM,> 100 µM,> 100 µM,> 100 µM,> 100 µM,> 100 µM,> 100 µM,,> 100 µM,> 100 µM,,> 100 µM,,
[O-][n+]1nc(N2CCOCC2)nc2ccccc21,> 100 µM,> 100 µM,> 100 µM,> 100 µM,> 100 µM,> 100 µM,> 100 µM,> 100 µM,> 100 µM,> 100 µM,> 100 µM,> 100 µM,> 100 µM,> 100 µM,> 100 µM,> 100 µM,> 100 µM,> 100 µM,,
NC(=O)NC1NC(=O)NC1=O (centres undefined),> 100 µM,> 100 µM,> 100 µM,> 100 µM,> 100 µM,> 100 µM,> 100 µM,> 100 µM,> 100 µM,> 100 µM,> 100 µM,> 100 µM,> 100 µM,> 100 µM,> 100 µM,> 100 µM,> 100 µM,> 100 µM,,
COc1cc2c(/C=C3/C(=O)Nc4ccc(O)cc43)c(Cl)n(Cc3ccccc3)c2cc1C,5.06 µM,3.96 µM,19.2 µM,6.74 µM,1.91 µM,> 100 µM,,,> 100 µM,,3.8 µM,> 45.3 µM,> 100 µM,12.2 µM,35.3 µM,0.629 µM,,> 100 µM,,6.26 µM
CCC(C)C(=O)OC1C(=O)OC2CC3C(C)=CC(=O)C(O)C3(C)C3C4(O)OCC23C1C(C)C4O (centres undefined),,,7.44 µM,0.784 µM,1.4 µM,0.184 µM,0.0723 µM,,2.38 µM,0.757 µM,0.0315 µM,,3.3 µM,0.0634 µM,0.257 µM,< 0.021 µM,< 0.0212 µM,0.113 µM,,
CCOC(=O)/C=C/CC(C)(C)COC(C)=O,> 10 µM,,,> 10 µM,> 10 µM,> 10 µM,> 10 µM,> 10 µM,> 10 µM,,,> 10 µM,,,> 10 µM,,> 10 µM,> 10 µM,,
CC(=O)OC1C=C(C=O)C(O)(C=O)C2(C)CCCC(C)(C)C12 (centres undefined),1.01 µM,3.65 µM,3.15 µM,1.5 µM,3.92 µM,6.81 µM,,0.895 µM,13.6 µM,2.75 µM,5.74 µM,5.97 µM,2.31 µM,4.6 µM,,2.33 µM,1.16 µM,5.82 µM,,
CC(C)=CCc1c(O)cc(O)c2c1OC(c1ccc(O)cc1)C(O)C2=O (centres undefined),49.9 µM,40.3 µM,,,> 100 µM,50.9 µM,,,80.8 µM,> 100 µM,35.5 µM,> 100 µM,> 100 µM,> 100 µM,82.9 µM,70.4 µM,42 µM,99 µM,,
NCC(Cl)C(O)c1cnc(N)[nH]1 (centres undefined),4.7 µM,> 37.1 µM,4.35 µM,2.15 µM,> 34.5 µM,18.3 µM,,25.4 µM,9.28 µM,5.51 µM,5.85 µM,32.8 µM,1.01 µM,15.5 µM,,11.2 µM,7.1 µM,38.8 µM,,
Cc1[nH]c(=O)[nH]c(=O)c1/C=C/C(=O)NC(CO)CC(C)C (centres undefined),> 375 µM,> 375 µM,310 µM,> 375 µM,> 375 µM,> 375 µM,,> 375 µM,> 375 µM,> 375 µM,> 375 µM,> 375 µM,> 375 µM,> 237 µM,,> 375 µM,> 375 µM,> 375 µM,,
N=C1C(=N)c2ccccc2-c2ccccc21.[Cl-].[Ru+2].c1cnc2c(c1)ccc1cccnc12.c1cnc2c(c1)ccc1cccnc12,> 100 µM,> 100 µM,,,88.8 µM,91.4 µM,,54 µM,> 100 µM,,57.8 µM,> 100 µM,,95.6 µM,76.6 µM,73.6 µM,54.7 µM,> 100 µM,,
COc1ccc(C2C(C(=O)O)=C(CO)Oc3cc4c(cc32)OCO4)cc1 (centres undefined),> 100 µM,> 100 µM,> 100 µM,> 100 µM,> 100 µM,> 100 µM,,,> 100 µM,> 100 µM,,> 100 µM,,> 100 µM,> 100 µM,> 100 µM,,> 100 µM,,
